Laboratory results reported in ChEMBL document CHEMBL5608113, “Targeting of CAF-induced therapy resistance in CRC organoid-stroma co-cultures” (2024).

Columns and labels:
Assay type in all cases: functional, Homo sapiens
Conditions in all cases: Homo sapiens, Concentration 10 uM; read-out: Cell Viability
Colon cancer organoid [1] = assay: Targeting of F14 CAF-induced therapy resistance in O23 CRC organoid-stroma co-culture. Cell viability is reported with SN-38.
Colon cancer organoid [2] = assay: Targeting of F14 CAF-induced therapy resistance in O14 CRC organoid-stroma co-culture. Cell viability is reported with Gefitinib.
Colon cancer organoid [3] = assay: Targeting of F14 CAF-induced therapy resistance in O23 CRC organoid-stroma co-culture. Cell viability is reported with Gefitinib.
Colon cancer organoid [4] = assay: Targeting of F14 CAF-induced therapy resistance in O23 CRC organoid-stroma co-culture. Cell viability is reported without Gefitinib.
Colon cancer organoid [5] = assay: Targeting of F14 CAF-induced therapy resistance in O14 CRC organoid-stroma co-culture. Cell viability is reported without Gefitinib.

SMILES	viability at 10 µM (Colon cancer organoid [1]) [%]	viability at 10 µM (Colon cancer organoid [2]) [%]	viability at 10 µM (Colon cancer organoid [3]) [%]	viability at 10 µM (Colon cancer organoid [4]) [%]	viability at 10 µM (Colon cancer organoid [5]) [%]
Cc1c(NC(=O)c2ccc(C(C)(C)C)cc2)cccc1-c1cn(C)c(=O)c(Nc2ccc(C(=O)N3CCOCC3)cc2)n1	56.9	23.8	54	56.1	82.5
CCOC(=O)c1c(/C(C#N)=C\N)c2ccc(Cl)c(Cl)c2n1C	68.1	47.7	52	99.7	106
COc1cc(Nc2nccc(-c3cnn4nc(OC)ccc34)n2)cc(C(F)(F)F)c1	23.6	3.12	19.5	53.3	3.97
O=C1[C@H](Cc2ccc(O)cc2)N2C(=O)CCN(C(=O)NCc3ccccc3)[C@H]2CN1Cc1cccc2ccccc12	103	22	85.3	125	37.1
Cc1cc(C)cc(C(=O)NOCCCCCC(=O)NO)c1	130	31.1	220	193	28.3
O=C(O)CNC(=O)c1c(O)c2ccccc2n(Cc2ccccc2)c1=O	95.1	80.4	67.5	167	103
Cc1sc2c(c1C)C(c1ccc(Cl)cc1)=N[C@H](CC(=O)OC(C)(C)C)c1nnc(C)n1-2	73.3	55.8	72	130	103
COc1cc(-c2cn([C@H]3CCc4c(F)cccc4N(CC(F)(F)F)C3=O)nn2)ccc1-n1cnc(C)c1	69.6	38.5	72	86.7	108
Cc1cc(=O)n(C)c2cc(N3C(=O)CC[C@H](NS(=O)(=O)CC(C)C)[C@H]3c3ccc(Cl)cc3)ccc12	81.7	72.6	66	144	75.8
C[C@@H]1CC(=O)Nc2cccc(-c3ccc4c(c3)c(-c3cnn(C)c3)nn4C)c2N1	70.4	21.1	69	115	43.6
CCN(C(=O)CO)[C@H]1CN(/C(=N\C#N)Nc2cccc(OC(F)F)c2)N=C1c1ccc(Cl)c(Cl)c1	115	62.2	54.9	84	125
CCc1cc2cc(NS(=O)(=O)c3ccc(C#N)cc3)ccc2n(CC)c1=O	88.2	84	73.6	127	106
Cn1c(=O)[nH]c2cc(N3C(=O)c4cccc5c(CCCO)ccc(c45)C3=O)ccc21	69.9	42.4	52.8	132	92.6
CN(C)[C@H]1CN(C2CCc3cccc(F)c32)C[C@@H]1c1ccc(N2CCN(S(C)(=O)=O)CC2)cc1 (stereo not given in full)	112	68.1	107	81.8	70.2
CO[C@H]1CNC[C@@H](OCC2CCC(F)(F)CC2)[C@@H]1Nc1ncc(-c2cncc(C)c2)c2cc(C)c(=O)[nH]c12	81.8	65.2	78.8	104	78.7
CCCCNNC(=O)c1ccc(Br)cc1	75	44.9	53.8	151	85.9
Cc1sc2c(c1C)C(c1ccc(Cl)cc1)=N[C@@H](CC(=O)NCCCCCCCCNC(=O)COc1cccc3c1C(=O)N(C1CCC(=O)NC1=O)C3=O)c1nnc(C)n1-2 (stereo not given in full)	4.21	2.25	5.19	6.5	3.56
CN(C)CCCOc1ccc(-c2cc(NCCCn3cccn3)nc(S(C)(=O)=O)n2)cc1	1.65	65.9	1.76	0.601	100
COc1cc(N(C)c2ccnc3ccc(C(F)(F)F)cc23)cc(OC)c1OC	64.7	50.1	69.7	135	109
CC(C)(O)[C@H](F)CN1Cc2cc(NC(=O)c3cnn4cccnc34)c(N3CCOCC3)cc2C1=O	51.5	23.3	38.7	85.8	129

SMILES	viability at 10 µM (Colon cancer organoid [1]) [%]	viability at 10 µM (Colon cancer organoid [2]) [%]	viability at 10 µM (Colon cancer organoid [3]) [%]	viability at 10 µM (Colon cancer organoid [4]) [%]	viability at 10 µM (Colon cancer organoid [5]) [%]
CNCCN1CCC(c2cc(CN(C)C(=O)c3cccc(Oc4ccccc4)c3)ccn2)CC1	84.5	40.3	71.9	118	80.6
COc1c(C)cc(NC(=O)c2nn(Cc3ccc(F)cc3)c3c2CN(C(=O)c2ccc[nH]2)C[C@]3(C)C(N)=O)cc1C	73.7	52.8	66.4	81.4	121
Cn1cc(-c2ccc3occ(-c4cccc(-c5ccncc5)c4)c3n2)cn1	65.6	56.4	87.7	114	112
CN(C(=O)c1cnn2cccnc12)c1cc2c(cc1N1CCOCC1)C(=O)N(C[C@@H](F)C(C)(C)O)C2	61.8	38.6	39.2	92.3	139
c1ccc(C2CCN(c3cnc4c(N5CCOCC5)nccn34)CC2)cc1	108	78.2	136	207	81.3
Cc1cc(C)cc([C@@H]2c3cc(C)ccc3NC(=O)CN2C(=O)c2ccc(Br)s2)c1	82.1	78.3	76	110	85.7
Cc1cc(C)cc([C@H]2c3cc(C)ccc3NC(=O)CN2C(=O)c2ccc(Br)s2)c1	86.1	63.7	63.4	84.3	96.4
COc1cc(Nc2nc(C)cc(-c3cnn4nc(OC)ccc34)n2)cc(C(F)(F)F)c1	59.6	52.6	68.9	119	115
CC1=C(C)C(=O)C(C(C)(C)CC(=O)N(CCCCSC[C@H]2O[C@@H](n3cnc4c(N)ncnc43)[C@@H]3OC(C)(C)O[C@@H]32)Cc2cccc(-c3ccc(Cl)cc3)c2)=C(C)C1=O	9.16	66.1	7.29	8.34	121
COc1cc(C(=O)N2CC[C@@H](O)[C@@H](N)C2)cc2nc(-c3cc4ccccc4n3CC3CC3)n(C)c12	75.5	58.8	73.5	112	107
COCCN1CCC(c2cc(CN(C)C(=O)c3cccc(Oc4ccccc4)c3)ccn2)CC1	34	65.6	27.5	46.6	67.2
CC(=O)c1cc(-c2ccccc2OCC2CC2)c2ncccn12	102	73.2	76.3	142	80.2
Cc1cc(CN)cc(C)c1-c1ncn(C)c1-c1cncn1C	87.1	80.2	73.9	112	112
CN(C)C(=O)N1CC[C@H](NC2=Nc3cc(F)ccc3N(CC(F)F)c3ccc(Cl)cc32)C1	75.2	61.6	43.7	102	87.4
CC1=C(C)C(=O)C(C(C)(C)CC(=O)N(CCCCSC[C@H]2O[C@@H](n3cnc4c(N)ncnc43)[C@H](O)[C@@H]2O)Cc2cccc(-c3ccc(Cl)cc3)c2)=C(C)C1=O	69.9	59.5	57.2	92.3	89.1
CC(C)Oc1ccc(-c2c[nH]cc2CN(C)CCO)cc1	80.1	58.5	90.2	129	72
CCn1c(-c2nc3cc(C(=O)N4CCCC(N)C4)ccc3n2C)cc2ccccc21 (stereo not given)	79.2	65	83.2	139	76.9
CCOc1ccc(S(=O)(=O)Nc2ccc(Cl)cc2C#Cc2cnc(C(=O)O)cc2OC)c2ncccc12	77.6	42.8	46.2	95.3	102
Cc1cc(CN)cc(C)c1-c1ncn(C)c1-c1ccnc2cc(F)ccc12	86.8	63.2	53.8	122	90.5
CC1=CC(C)=[N+]2C1=C(CCCCc1cn(CC(=O)N3CCc4nc(NC(=O)[C@H]5CCN(C#N)C5)sc4C3)nn1)c1c(C)cc(C)n1[B-]2(F)F	52.6	31.6	36.4	101	115
